Values belong to the compound of their own block, whether it stands above or below them. Calls of active or inactive are those of the source.
How the values were obtained:
BJ [1] = assay: cells; format: functional, cell-based; settings: Homo sapiens
[2] = DRD fibroblast viability loss – cell-based, non-viral oncogenic, luminescence, dose response (AID 1934); format: functional; settings: Homo sapiens
BJ [3] = assay: growth inhibition of engineered Ras-driven BJ cells – cell-based, alamar blue fluorescence, cherrypicked samples, dose response (AID 2631); format: functional; settings: Homo sapiens;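 also: confirmatory dose-response assay in RAS-dependent BJ fibroblasts engineered with TERT, LT and ST, with cytotoxicity read by fluorescence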
BJ [4] = assay: BJ-TERT fibroblast viability loss – cell-based, RAS-independent, luminescence, dose response (AID 1933); format: functional; settings: Homo sapiens
Beta-galactosidase = Beta-galactosidase (Escherichia coli, UniProt Q8VNN2); assay: PubChem AID 485352; format: functional
[5] = biological target: T1, Type-1 angiotensin II receptor (Homo sapiens, UniProt P30556); assay: antagonism of angiotensin II type 1 receptor – cell-based, uHTS hits, selectivity assay for APJ receptor antagonist project, dose response (AID 463214); format: functional;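 also: antagonist potency against angiotensin II stimulated AT1 response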
T1 sequence (P30556 whole entry): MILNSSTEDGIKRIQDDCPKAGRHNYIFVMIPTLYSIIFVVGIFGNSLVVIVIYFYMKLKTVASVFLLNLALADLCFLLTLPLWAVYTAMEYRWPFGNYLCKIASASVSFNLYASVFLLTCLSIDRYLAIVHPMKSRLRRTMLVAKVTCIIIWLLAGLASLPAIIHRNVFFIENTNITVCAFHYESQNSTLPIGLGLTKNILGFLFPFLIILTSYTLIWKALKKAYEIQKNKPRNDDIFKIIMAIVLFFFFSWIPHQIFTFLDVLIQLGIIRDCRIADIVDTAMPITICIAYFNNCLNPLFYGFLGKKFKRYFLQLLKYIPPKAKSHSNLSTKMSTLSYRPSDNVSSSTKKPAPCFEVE

[6] = biological target: Heat shock protein HSP 90-alpha (Homo sapiens, UniProt P07900); assay: Luminescence-based dose response biochemical high throughput screening assay for inhibitors of the Heat Shock Protein 90 (HSP90). [Related pubchem assays: 1831 (Summary AID.), 1846 (Confirmation screen.), 1789 (Primary screen.)]
BJ [7] = assay: BJ-TERT-LT-ST fibroblast viability loss – cell-based, RAS-independent, luminescence, dose response (AID 1935); format: functional; settings: Homo sapiens;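 also: BJ fibroblasts immortalized with TERT plus LT and ST oncogenes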
[8] = biological target: T2, Heat shock factor protein 1 (Mus musculus, UniProt P38532); assay: decrease of HSF1-responsive luciferase luminescence – cell-based, NIH3T3, dose retest, confirmation (AID 2382); format: functional;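 also: NIH3T3 fibroblasts with HSF1-driven luciferase reporter stressed by proteasome inhibitor MG132; luminescence from HSF1-driven luciferase expression after 8 hours of MG132 stress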
T2 sequence (P38532 whole entry): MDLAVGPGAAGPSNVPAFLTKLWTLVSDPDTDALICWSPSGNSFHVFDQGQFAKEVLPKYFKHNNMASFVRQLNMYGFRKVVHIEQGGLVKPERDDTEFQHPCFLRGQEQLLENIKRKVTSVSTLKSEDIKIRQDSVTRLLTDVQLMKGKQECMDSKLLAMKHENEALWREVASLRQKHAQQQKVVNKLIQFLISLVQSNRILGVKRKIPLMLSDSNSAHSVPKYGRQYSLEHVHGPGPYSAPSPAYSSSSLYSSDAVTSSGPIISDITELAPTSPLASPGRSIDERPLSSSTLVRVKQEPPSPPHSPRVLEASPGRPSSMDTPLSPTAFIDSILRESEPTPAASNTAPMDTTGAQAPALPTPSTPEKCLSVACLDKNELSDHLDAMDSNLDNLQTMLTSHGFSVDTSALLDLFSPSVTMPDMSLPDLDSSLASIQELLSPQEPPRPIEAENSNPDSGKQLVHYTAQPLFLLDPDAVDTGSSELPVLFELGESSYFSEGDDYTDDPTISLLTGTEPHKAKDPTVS

Escherichia coli = assay: microbe, parasite or virus in culture
Leucine aminopeptidase = biological target: T3, Leucine aminopeptidase (Plasmodium falciparum 3D7, UniProt Q8IL11); assay: P. falciparum M17LAP inhibitors, primary screen, biochemical, fluorogenic H-Leu-NHMec substrate, 1536-well (AID 1619); format: functional
T3 sequence (Q8IL11 whole entry): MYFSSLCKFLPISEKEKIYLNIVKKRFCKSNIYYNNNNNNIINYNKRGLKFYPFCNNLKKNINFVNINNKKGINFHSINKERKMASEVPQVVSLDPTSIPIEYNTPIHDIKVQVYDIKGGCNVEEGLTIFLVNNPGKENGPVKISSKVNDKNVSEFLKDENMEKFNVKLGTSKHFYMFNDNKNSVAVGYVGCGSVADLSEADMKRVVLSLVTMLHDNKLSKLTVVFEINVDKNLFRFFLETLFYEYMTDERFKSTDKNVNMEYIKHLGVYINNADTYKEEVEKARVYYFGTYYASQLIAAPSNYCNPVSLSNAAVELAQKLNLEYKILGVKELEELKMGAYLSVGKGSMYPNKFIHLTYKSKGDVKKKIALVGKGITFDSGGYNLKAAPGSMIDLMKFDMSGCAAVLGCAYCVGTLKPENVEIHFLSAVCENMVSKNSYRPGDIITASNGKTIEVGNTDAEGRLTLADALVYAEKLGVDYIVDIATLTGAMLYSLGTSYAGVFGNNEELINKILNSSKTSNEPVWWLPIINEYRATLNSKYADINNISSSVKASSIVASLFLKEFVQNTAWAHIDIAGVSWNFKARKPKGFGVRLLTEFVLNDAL

[9] = biological target: T4, Mannose-6-phosphate isomerase (Homo sapiens, UniProt P34949); assay: MPI enzyme activity inhibition – biochemical, fluorescence intensity, coupled assay, primary screen (AID 1209)
T4 sequence (P34949 whole entry): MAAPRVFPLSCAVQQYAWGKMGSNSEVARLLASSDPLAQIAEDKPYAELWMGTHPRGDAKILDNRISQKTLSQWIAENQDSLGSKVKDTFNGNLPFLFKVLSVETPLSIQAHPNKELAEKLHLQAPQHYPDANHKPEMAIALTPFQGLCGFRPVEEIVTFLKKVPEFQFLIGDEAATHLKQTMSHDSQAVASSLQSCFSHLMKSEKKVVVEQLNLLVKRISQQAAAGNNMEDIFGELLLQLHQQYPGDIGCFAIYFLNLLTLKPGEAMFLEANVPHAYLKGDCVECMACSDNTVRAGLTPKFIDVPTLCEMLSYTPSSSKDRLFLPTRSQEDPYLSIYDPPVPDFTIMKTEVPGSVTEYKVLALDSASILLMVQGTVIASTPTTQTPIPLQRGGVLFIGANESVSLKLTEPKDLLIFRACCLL

[10] = biological target: T5, High affinity choline transporter 1 (Homo sapiens, UniProt Q9GZV3); assay: human choline transporter blockers, potency – cell-based, 5-point CRC, membrane potential dye, dose response (AID 504840); format: functional
T5 sequence (Q9GZV3 whole entry): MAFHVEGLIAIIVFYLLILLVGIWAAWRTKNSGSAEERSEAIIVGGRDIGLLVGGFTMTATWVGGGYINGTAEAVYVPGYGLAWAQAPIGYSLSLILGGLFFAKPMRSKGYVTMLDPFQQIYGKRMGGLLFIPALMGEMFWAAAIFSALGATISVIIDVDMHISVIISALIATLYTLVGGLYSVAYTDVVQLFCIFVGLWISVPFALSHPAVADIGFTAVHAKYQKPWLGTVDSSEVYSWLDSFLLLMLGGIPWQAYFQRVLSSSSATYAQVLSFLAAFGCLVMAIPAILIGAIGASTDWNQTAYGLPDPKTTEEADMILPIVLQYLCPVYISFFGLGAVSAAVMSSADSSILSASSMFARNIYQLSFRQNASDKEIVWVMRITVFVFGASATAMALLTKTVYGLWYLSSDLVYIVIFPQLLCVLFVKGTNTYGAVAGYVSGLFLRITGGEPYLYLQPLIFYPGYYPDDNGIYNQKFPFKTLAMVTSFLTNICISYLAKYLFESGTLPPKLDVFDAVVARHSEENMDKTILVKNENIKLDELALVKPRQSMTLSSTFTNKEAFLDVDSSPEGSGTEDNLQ

[11] = biological target: T4, Mannose-6-phosphate isomerase; assay: phosphomannose isomerase inhibition – biochemical, fluorescence intensity, confirmation (AID 1535)
Phosphomannomutase 2 = biological target: T6, Phosphomannomutase 2 (Homo sapiens, UniProt O15305); assay: Counter screen SAR assay for PMM2 inhibitors via a fluorescence intensity assay. [Related pubchem assays (depositor defined):AID1545, AID1574]
T6 sequence (O15305 whole entry): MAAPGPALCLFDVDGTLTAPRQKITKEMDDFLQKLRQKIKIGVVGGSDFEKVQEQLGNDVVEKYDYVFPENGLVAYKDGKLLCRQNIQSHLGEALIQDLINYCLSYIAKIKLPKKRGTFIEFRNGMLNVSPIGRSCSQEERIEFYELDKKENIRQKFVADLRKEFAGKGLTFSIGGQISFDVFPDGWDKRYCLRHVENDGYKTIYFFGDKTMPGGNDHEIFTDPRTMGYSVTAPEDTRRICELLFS

[12] = biological target: FAD-linked sulfhydryl oxidase ALR (Homo sapiens, UniProt P55789); assay: ALR-catalysed DTT oxidation blockers – biochemical, H2O2 detection, luminescence, cherry-pick, dose response (AID 493248)
HeLa = assay: ATP-based viability loss in HeLa cells – cell-based, CellTiter-Glo luminescence, cherry-pick samples, cytotoxicity control for MITF activator project, dose response (AID 540259); format: functional; settings: Homo sapiens
Cytochrome P450 2C9 = Cytochrome P450 2C9 (Homo sapiens, UniProt P11712)
Cytochrome P450 2D6 = Cytochrome P450 2D6 (Homo sapiens, UniProt P10635);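 also: CYP2D6 member of a cytochrome P450 panel assay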
[13] = biological target: Glucose-6-phosphate 1-dehydrogenase (Homo sapiens, UniProt P11413); assay: inhibition of Homo sapiens G6PD, dose series – biochemical, fluorescence, selectivity assay for P. falciparum G6PD inhibitor project, dose response (AID 504792); format: functional
[14] = biological target: T7, Rac GTPase-activating protein 1 (Homo sapiens, UniProt Q9H0H5); assay: blockers of MgcRacGAP-driven Rac1 GTP hydrolysis – biochemical, ADP Hunter fluorescence, primary and confirmatory, confirmation (AID 624330); format: functional
T7 sequence (Q9H0H5 whole entry): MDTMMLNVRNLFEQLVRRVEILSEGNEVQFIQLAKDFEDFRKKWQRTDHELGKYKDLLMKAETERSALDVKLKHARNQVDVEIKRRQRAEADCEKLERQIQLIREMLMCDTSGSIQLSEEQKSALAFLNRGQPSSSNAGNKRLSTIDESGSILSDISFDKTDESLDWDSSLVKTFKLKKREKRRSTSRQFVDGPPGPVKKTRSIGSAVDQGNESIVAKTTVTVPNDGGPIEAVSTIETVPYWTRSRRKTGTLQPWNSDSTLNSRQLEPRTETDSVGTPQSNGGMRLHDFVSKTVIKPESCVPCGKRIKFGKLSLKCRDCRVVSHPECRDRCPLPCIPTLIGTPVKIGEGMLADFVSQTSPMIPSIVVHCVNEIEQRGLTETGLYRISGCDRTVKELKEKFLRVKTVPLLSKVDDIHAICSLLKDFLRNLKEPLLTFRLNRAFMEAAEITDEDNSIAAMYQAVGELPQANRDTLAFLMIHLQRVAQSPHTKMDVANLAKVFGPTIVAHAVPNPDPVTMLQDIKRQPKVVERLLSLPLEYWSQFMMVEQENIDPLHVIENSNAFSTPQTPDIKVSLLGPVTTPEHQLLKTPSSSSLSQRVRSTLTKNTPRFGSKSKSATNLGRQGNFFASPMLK

Chain of Cytochrome P450 2C9 (P11712 whole entry): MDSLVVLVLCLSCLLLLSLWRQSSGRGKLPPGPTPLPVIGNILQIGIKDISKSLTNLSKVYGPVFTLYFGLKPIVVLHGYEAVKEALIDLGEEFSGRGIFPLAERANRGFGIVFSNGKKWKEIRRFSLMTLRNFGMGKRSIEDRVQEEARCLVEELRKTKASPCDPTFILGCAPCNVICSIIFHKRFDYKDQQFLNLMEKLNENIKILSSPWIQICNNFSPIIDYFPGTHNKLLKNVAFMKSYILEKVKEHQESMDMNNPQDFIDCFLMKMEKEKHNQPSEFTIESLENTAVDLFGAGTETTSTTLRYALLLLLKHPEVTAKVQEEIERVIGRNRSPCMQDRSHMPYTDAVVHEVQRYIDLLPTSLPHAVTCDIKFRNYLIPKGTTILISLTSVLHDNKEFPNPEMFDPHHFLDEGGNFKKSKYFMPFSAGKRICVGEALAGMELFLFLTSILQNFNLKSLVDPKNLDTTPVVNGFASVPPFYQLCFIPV
Chain of Cytochrome P450 2D6 (P10635 whole entry): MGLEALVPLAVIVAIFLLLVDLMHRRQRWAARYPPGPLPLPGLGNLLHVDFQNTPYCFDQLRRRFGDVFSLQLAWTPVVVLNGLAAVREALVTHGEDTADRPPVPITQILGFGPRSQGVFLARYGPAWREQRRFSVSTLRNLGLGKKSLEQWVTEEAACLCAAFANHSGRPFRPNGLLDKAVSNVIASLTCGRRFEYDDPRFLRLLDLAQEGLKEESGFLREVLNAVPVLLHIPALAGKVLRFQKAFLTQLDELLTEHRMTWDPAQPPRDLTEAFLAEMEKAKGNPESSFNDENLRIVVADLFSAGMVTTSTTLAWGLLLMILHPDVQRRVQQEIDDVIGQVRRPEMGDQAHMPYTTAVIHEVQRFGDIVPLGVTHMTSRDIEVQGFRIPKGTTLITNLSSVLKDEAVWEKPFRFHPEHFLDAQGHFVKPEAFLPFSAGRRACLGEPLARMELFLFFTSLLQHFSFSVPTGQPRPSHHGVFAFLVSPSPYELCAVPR
Chain of FAD-linked sulfhydryl oxidase ALR (P55789 whole entry): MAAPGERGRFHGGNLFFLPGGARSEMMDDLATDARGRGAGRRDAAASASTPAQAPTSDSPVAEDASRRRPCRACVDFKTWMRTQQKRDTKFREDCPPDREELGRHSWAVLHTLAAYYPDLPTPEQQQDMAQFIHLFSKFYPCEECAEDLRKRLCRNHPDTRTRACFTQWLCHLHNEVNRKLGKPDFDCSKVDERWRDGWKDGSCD
Chain of Beta-galactosidase (Q8VNN2 whole entry): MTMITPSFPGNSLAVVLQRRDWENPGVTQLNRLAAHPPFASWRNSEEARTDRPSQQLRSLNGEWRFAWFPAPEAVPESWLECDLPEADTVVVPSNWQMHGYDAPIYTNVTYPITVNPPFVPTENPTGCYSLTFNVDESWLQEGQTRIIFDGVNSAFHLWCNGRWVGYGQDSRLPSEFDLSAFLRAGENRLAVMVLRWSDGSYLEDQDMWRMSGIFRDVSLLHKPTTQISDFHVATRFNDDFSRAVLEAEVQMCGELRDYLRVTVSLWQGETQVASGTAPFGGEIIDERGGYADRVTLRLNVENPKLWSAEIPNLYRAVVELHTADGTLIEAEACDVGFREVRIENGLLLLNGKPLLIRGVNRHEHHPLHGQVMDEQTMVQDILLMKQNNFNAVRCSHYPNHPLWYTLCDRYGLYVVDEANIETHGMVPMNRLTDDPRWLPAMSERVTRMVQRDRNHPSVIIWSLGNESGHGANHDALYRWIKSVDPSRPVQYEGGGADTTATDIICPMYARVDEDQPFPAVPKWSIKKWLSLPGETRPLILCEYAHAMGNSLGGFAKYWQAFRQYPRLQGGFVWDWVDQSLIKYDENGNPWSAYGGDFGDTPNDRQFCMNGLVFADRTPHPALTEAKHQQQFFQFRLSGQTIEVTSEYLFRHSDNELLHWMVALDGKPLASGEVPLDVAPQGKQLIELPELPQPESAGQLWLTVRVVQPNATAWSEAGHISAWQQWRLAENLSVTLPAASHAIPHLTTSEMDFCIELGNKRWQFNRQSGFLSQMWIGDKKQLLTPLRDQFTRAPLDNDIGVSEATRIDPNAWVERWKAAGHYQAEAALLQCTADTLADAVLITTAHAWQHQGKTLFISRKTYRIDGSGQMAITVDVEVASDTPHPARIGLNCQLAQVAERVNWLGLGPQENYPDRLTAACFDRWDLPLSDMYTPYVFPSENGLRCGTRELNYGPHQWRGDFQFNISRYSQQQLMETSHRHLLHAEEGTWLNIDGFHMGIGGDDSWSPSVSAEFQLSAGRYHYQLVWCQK
Chain of Glucose-6-phosphate 1-dehydrogenase (P11413 whole entry): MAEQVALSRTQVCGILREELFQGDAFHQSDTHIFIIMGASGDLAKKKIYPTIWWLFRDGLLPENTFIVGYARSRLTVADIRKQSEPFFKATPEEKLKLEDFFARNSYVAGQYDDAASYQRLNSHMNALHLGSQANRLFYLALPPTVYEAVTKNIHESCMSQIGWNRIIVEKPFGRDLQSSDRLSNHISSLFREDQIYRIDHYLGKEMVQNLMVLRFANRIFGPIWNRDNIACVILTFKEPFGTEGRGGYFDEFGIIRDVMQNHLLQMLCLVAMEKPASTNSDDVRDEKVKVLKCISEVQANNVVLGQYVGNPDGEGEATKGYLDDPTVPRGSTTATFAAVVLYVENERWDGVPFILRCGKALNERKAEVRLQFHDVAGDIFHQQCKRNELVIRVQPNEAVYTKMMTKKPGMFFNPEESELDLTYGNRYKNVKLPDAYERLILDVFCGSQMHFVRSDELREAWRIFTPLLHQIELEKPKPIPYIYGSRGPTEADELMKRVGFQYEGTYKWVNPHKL

Structure (SMILES): O=[N+]([O-])c1ccc(N=Nc2ncc[nH]2)cc1
EC50 (BJ [1]): 2.43 µM (inconclusive)
EC50 [2]: 11.5 µM (inconclusive)
EC50 (BJ [3]): 14.8 µM (active)
EC50 (BJ [4]): 5.4 µM (inconclusive)
EC50 (Beta-galactosidase): > 40 µM (inactive)
IC50 [5]: 23.5 µM (not active)
IC50 [6]: 10.2 µM (not active)
EC50 (BJ [7]): > 150 µM (inconclusive)
EC50 [8]: 8.49 µM (active)

Structure (SMILES): Cc1ccc(O)c(C(=O)c2coc(=N)c(C(=O)NC(C)C)c2)c1
AC50 (Escherichia coli): 23.8 µM (active)
IC50 (Leucine aminopeptidase): 4.66 µM (active)

IC50 [9]: 6.08 µM (active)
IC50 [10]: 13.2 µM (active)
IC50 (Leucine aminopeptidase): 46 µM (active)
IC50 [11]: > 50 µM (inactive)
IC50 (Phosphomannomutase 2): > 100 µM (inactive)
Structure (SMILES): CC(C)(C)c1ccc(C(=O)CSc2nnc[nH]2)cc1

Structure (SMILES): CCCC(=O)Nc1ccc(NC(=O)c2ccccn2)cn1
AC50 (Escherichia coli): 58.3 µM (active)

Structure (SMILES): O=C(NCCc1ccc(O)cc1)c1ccc(Cl)cc1
AC50 [12]: 6.24 µM (active)
AC50 (HeLa): 99 µM (active)
AC50 (Cytochrome P450 2C9): inconclusive
AC50 (Cytochrome P450 2D6): 25.1 µM (inconclusive)

IC50 [13]: 42.1 µM (inactive)
IC50 [14]: 46.5 µM (active)
Structure (SMILES): O=C1CCN(c2ccccc2)N1 [PHENIDONE]
